# The source made the active and inactive calls. The rule behind the calls is not given here. Where a SMILES comes first, the peptide text is derived from it.
# Key:
# HEK293 = assay: Activation of COL1a2 transcriptional activity in HEK293 cells by dual-luciferase reporter assay; format: functional, cell-based; conditions: Homo sapiens
# [1] = Antioxidant activity assessed as ROS scavenging activity; format: functional
# [2] = Antioxidant activity assessed as ABTS radical scavenging activity at 80 ug/mL incubated for 10 mins by absorbance based assay; format: functional; conditions: dose 80.0 µg/ml
# Mus musculus [3] = assay: Protection against UV radiation-stress induced skin damage in Kunming mouse model assessed as repair of broken skin at 20 ug/ml administered topically and measured every 2 days for 10 days; format: functional, organism-based; conditions: dose 20.0 µg/ml, route top, time 10.0 day
# [4] = Antioxidant activity assessed as DPPH radical scavenging activity by measuring eradication rate at 80 ug/mL incubated for 30 mins by absorbance based assay relative to control; format: functional; conditions: dose 80.0 µg/ml
# HFF-1 [5] = assay: Cytotoxicity against HFF-1 cells upto 160 ug/mL incubated for 24 hrs by MTT assay; format: toxicity, cell-based; conditions: human, hff-1, 24 h, up to 160 µg/mL
# [6] = Thermal stability of compound by measuring retention of ABTS radical scavenging activity at 2 mg/mL at 37 degC for 96 hrs; format: physicochemical
# HFF-1 [7] = assay: Induction of HFF-1 cell migration at 10 ug/mL measured for 2 to 8 hrs by transwell migration assay; format: functional, cell-based; conditions: Homo sapiens, dose 10.0 µg/ml, time 2-8 hrs
# Erythrocyte = assay: Hemolytic activity in human erythrocytes assessed as release of hemoglobin at 10 to 160 ug/ml; format: toxicity, cell-based; conditions: dose 10-160 µg/ml
# HFF-1 [8] = assay: Inhibition of intracellular ROS level in UV-A-induced SIPS HFF-1 cell model assessed as reduction in ROS level pretreated with compound for 24 hrs followed by 10.8 J/cm^2 UV-A irritation incubated for 30 mins under dark condition by DCFH-DA staining based flow cytometry analysis; format: functional; conditions: Homo sapiens, dose 5-50 µg/ml, time 24.5 hrs
# HFF-1 [9] = assay: Protection against UV-A/H2O2-stress induced premature senescence HFF-1 cell model assessed as cell migration by measuring cellular repair activity at 10 ug/mL upto 24 hrs by inverted microscopic based cell scratch assay; format: functional; conditions: Homo sapiens, dose 10.0 µg/ml
# [10] = Toxicity in Wistar rat mast cell assessed as cell degranulation by measuring beta-hexosaminidase release at 10 ug/mL incubated for 15 mins by fluorescence based analysis (reference value: 20.13 +/- 1.40 %); conditions: 0.25 h, at 10 µg/mL
# HFF-1 [11] = assay: Downregulation of MMP-1 expression in UV-A-induced SIPS HFF-1 cell model pretreated with compound for 24 hrs followed by 10.8 J/cm^2 UV-A irradiation by Western blot analysis; format: functional, cell-based; conditions: Homo sapiens, dose 5-25 µg/ml
# HFF-1 [12] = assay: Antioxidant activity against UV-A-induced SIPS HFF-1 cell model assessed as recovery of CAT level at 5 to 25 ug/mL pretreated with compound followed by 10.8 J/cm^2 UV-A irradiation; format: functional, cell-based; conditions: Homo sapiens, dose 5-25 µg/ml
# Mus musculus [13] = assay: In vivo anti-skin aging activity against UV-induced SIPS Kunming mouse model assessed as restoration of skin elasticity at 100 ug/ml administered topically for 5 weeks in presence of propylene glycol; format: functional, organism-based; conditions: dose 100.0 µg/ml, route top
# [14] = Stability of compound in human serum assessed as protease mediated degradation at 2 mg/mL incubated for 24 hrs by RP-HPLC analysis; format: ADME, cell-free
# [15] = Toxicity in Wistar rat mast cell assessed as cell degranulation by measuring beta-hexosaminidase release at 40 ug/mL incubated for 15 mins by fluorescence based analysis (reference value: 20.13 +/- 1.40 %); conditions: 0.25 h, at 40 µg/mL
# [16] = Toxicity in Wistar rat mast cell assessed as cell degranulation by measuring beta-hexosaminidase release at 160 ug/mL incubated for 15 mins by fluorescence based analysis (reference value: 20.13 +/- 1.40 %); conditions: 0.25 h, at 160 µg/mL
# [17] = Toxicity in Wistar rat mast cell assessed as cell degranulation by measuring increase in beta-hexosaminidase release at 160 ug/mL incubated for 15 mins by fluorescence based analysis (reference value: 0 +/- 1.40 %); conditions: 0.25 h, at 160 µg/mL
# HFF-1 [18] = assay: Protection against H2O2-induced SIPS HFF-1 cell model assessed as reduction in cell senescence at 5 to 25 ug/mL pretreated for 24 hrs followed by irritation with H2O2 for 2 hrs by SA-beta-Gal staining assay; format: functional, cell-based; conditions: Homo sapiens, dose 5-25 µg/ml, time 26.0 hrs
# Mus musculus [19] = assay: In vivo anti-skin aging activity against UV-induced SIPS Kunming mouse model assessed as restoration of dorsal skin thickness at 100 ug/ml administered topically for 5 weeks in presence of propylene glycol by caliper method; format: functional, organism-based; conditions: dose 100.0 µg/ml, route top
# HFF-1 [20] = assay: Inhibition of H2O2-stimulated TNF-alpha production in SIPS HFF-1 cell model pre-incubated with compound for 12 hrs followed by H2O2 stimulation for 60 mins by ELISA method; format: functional, cell-based; conditions: Homo sapiens, dose 5-25 µg/ml, time 13.0 hrs
# HFF-1 [21] = assay: Induction of autophagy in H2O2-induced SIPS HFF-1 cell model assessed as phosphorylated AMPK expression at 5 to 25 ug/mL pretreated with compound for 24 hrs followed by H2O2 exposure for 2 hrs by Western blot analysis; format: functional, cell-based; conditions: Homo sapiens, dose 5-25 µg/ml, time 26.0 hrs
# Mus musculus [22] = assay: In vivo anti-skin aging activity against UV-induced SIPS Kunming mouse model assessed as increase in Skin-fold thickness of dorsal skin at 100 ug/ml administered topically and measured for 10 weeks in presence of propylene glycol by caliper method; format: functional, organism-based; conditions: dose 100.0 µg/ml, route top
# HFF-1 [23] = assay: Induction of autophagy in H2O2-induced SIPS HFF-1 cell model assessed as beclin-1 expression at 5 to 25 ug/mL pretreated with compound for 24 hrs followed by H2O2 exposure for 2 hrs by Western blot analysis; format: functional, cell-based; conditions: Homo sapiens, dose 5-25 µg/ml, time 26.0 hrs
# [24] = Antioxidant activity assessed as ABTS radical scavenging activity in presence of 50 mM NaCl; format: functional
# [25] = target: Ribosomal protein S6 kinase (Homo sapiens) (UniProt P51812+Q9UBS0+O75676+Q15349+O75582+P23443+Q9UK32+Q15418); assay: Inhibition of H2O2-induced S6K phosphorylation in HFF-1 cells at 5 to 25 ug/mL pretreated with compound for 24 hrs followed by H2O2 exposure for 2 hrs by Western blot analysis; format: cell-based; conditions: dose 5-25 µg/ml, time 26.0 hrs
# [26] = target: Nuclear factor NF-kappa-B complex (Homo sapiens) (UniProt Q00653+P19838+Q04206); assay: Inhibition of NF-kappaB activation in HFF-1 cells assessed as suppression of UV-A-induced IkappaBalpha degradation at 5 to 25 ug/mL pretreated with compound for 24 hrs followed by 10.8 J/cm^2 UV-A irradiation by Western blot analysis; format: cell-based; conditions: dose 5-25 µg/ml
# Chain of Nuclear factor NF-kappa-B complex (Homo sapiens) (P19838 whole entry, looked up): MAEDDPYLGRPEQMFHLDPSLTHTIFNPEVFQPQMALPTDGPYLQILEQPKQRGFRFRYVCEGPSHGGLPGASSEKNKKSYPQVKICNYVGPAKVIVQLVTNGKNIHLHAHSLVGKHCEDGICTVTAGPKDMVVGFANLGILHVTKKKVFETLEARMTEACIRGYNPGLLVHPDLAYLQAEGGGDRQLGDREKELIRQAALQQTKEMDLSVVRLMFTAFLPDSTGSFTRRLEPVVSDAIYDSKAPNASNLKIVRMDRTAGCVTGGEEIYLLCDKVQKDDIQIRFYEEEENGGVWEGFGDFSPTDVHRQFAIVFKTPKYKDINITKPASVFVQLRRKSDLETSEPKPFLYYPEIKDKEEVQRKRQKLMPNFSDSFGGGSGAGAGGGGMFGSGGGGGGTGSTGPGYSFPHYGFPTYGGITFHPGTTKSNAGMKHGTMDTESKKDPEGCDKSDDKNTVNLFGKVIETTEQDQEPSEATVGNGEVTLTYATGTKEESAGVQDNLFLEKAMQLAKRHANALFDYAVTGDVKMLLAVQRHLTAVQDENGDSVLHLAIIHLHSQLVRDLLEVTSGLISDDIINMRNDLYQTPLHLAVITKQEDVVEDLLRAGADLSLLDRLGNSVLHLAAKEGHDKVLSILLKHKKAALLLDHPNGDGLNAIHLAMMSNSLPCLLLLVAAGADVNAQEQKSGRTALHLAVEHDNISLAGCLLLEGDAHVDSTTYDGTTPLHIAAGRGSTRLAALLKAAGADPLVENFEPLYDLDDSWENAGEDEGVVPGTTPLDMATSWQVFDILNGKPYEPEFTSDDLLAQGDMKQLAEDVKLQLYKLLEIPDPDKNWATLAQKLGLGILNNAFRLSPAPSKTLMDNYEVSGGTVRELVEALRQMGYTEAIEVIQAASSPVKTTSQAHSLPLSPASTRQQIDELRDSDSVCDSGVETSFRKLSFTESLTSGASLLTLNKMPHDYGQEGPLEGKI
# Chain of Nuclear factor NF-kappa-B complex (Homo sapiens) (Q00653 whole entry, looked up): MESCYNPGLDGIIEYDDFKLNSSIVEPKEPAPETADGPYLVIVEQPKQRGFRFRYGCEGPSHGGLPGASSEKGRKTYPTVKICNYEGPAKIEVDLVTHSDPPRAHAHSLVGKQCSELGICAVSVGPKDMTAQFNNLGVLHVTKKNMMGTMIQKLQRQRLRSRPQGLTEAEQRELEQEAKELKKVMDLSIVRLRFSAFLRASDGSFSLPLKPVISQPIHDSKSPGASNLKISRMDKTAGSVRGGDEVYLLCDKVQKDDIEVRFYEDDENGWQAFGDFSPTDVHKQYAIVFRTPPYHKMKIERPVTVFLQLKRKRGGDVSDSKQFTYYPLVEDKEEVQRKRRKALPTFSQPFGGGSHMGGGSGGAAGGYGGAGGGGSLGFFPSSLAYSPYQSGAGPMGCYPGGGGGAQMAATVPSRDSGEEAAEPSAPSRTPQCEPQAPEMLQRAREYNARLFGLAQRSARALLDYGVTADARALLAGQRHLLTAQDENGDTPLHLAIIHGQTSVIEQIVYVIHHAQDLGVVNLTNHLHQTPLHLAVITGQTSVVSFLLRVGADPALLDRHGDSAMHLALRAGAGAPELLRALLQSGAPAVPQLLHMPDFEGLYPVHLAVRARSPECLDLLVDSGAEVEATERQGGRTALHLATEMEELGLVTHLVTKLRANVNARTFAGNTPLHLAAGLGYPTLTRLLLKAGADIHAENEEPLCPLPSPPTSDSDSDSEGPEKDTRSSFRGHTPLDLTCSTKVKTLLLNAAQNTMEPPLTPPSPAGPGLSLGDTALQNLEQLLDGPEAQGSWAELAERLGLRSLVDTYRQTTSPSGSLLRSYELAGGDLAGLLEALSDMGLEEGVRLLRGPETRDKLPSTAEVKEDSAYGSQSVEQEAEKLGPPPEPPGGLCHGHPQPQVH
# Chain of Nuclear factor NF-kappa-B complex (Homo sapiens) (Q04206 whole entry, looked up): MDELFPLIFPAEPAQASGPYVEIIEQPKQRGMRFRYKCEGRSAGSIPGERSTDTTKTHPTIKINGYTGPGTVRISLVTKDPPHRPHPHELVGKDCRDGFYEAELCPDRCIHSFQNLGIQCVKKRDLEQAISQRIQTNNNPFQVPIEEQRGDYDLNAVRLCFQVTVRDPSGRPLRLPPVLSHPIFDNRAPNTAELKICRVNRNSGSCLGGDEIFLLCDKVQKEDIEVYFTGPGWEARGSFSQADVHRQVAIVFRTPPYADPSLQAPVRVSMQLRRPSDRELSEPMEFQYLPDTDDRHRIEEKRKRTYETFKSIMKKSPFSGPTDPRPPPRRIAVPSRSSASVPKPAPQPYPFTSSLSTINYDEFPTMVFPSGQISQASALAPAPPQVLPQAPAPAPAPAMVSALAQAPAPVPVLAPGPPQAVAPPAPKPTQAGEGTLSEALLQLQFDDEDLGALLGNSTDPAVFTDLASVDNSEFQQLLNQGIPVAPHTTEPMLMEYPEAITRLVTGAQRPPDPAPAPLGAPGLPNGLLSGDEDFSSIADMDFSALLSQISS
# Mus musculus [27] = assay: In vivo anti-skin aging activity against UV-induced SIPS Kunming mouse model assessed as repair of wrinkled skin at 100 ug/ml administered topically for 5 weeks in presence of propylene glycol by macroscopic analysis; format: functional, organism-based; conditions: dose 100.0 µg/ml, route top
# HFF-1 [28] = assay: Inhibition of H2O2-induced AKT activation in HFF-1 cells assessed as downregulation of mTOR phosphorylation at 5 to 25 ug/mL pretreated with compound for 24 hrs followed by H2O2 exposure for 2 hrs by Western blot analysis; format: cell-based; conditions: Homo sapiens, dose 5-25 µg/ml, time 26.0 hrs
# HFF-1 [29] = assay: Inhibition of H2O2-induced AKT phosphorylation in HFF-1 cells at 5 to 25 ug/mL pretreated with compound for 24 hrs followed by H2O2 exposure for 2 hrs by Western blot analysis; format: cell-based; conditions: Homo sapiens, dose 5-25 µg/ml, time 26.0 hrs
# [30] = Toxicity in Wistar rat mast cell assessed as cell degranulation by measuring increase in beta-hexosaminidase release at 40 ug/mL incubated for 15 mins by fluorescence based analysis (reference value: 0 +/- 1.40 %); conditions: 0.25 h, at 40 µg/mL
# [31] = Antioxidant activity assessed as ABTS radical scavenging activity in presence of 400 mM NaCl; format: functional
# HFF-1 [32] = assay: Induction of autophagy in H2O2-induced SIPS HFF-1 cell model assessed as ratio of LC3BII/LC3BI levels at 5 to 25 ug/mL pretreated with compound for 24 hrs followed by H2O2 exposure for 2 hrs by Western blot analysis; format: functional, cell-based; conditions: Homo sapiens, dose 5-25 µg/ml, time 26.0 hrs
# HFF-1 [33] = assay: Induction of autophagy in H2O2-induced SIPS HFF-1 cell model assessed as p62 expression at 5 to 25 ug/mL pretreated with compound for 24 hrs followed by H2O2 exposure for 2 hrs by Western blot analysis; format: functional, cell-based; conditions: Homo sapiens, dose 5-25 µg/ml, time 26.0 hrs
# [34] = Toxicity in Wistar rat mast cell assessed as cell degranulation by measuring increase in beta-hexosaminidase release at 10 ug/mL incubated for 15 mins by fluorescence based analysis (reference value: 0 +/- 1.40 %); conditions: 0.25 h, at 10 µg/mL
# HFF-1 [35] = assay: Antioxidant activity against UV-A-induced SIPS HFF-1 cell model assessed as recovery of SOD level at 5 to 25 ug/mL pretreated with compound followed by 10.8 J/cm^2 UV-A irradiation; format: functional, cell-based; conditions: Homo sapiens, dose 5-25 µg/ml
# HFF-1 [36] = assay: Restoration of H2O2-induced mitochondrial membrane potential damage in SIPS HFF-1 cell model at 5 to 25 ug/mL incubated for 20 mins by JC-1 staining based fluorescence microscopic analysis; format: functional; conditions: Homo sapiens, dose 5-25 µg/ml
# Mus musculus [37] = assay: In vivo anti-skin aging activity against UV-induced SIPS Kunming mouse model assessed as prevention of wrinkle and erythema formation at 100 ug/ml administered topically and measured for 10 weeks in presence of propylene glycol by macroscopic analysis; format: functional, organism-based; conditions: dose 100.0 µg/ml, route top
# HFF-1 [38] = assay: Inhibition of H2O2-stimulated IL-1beta production in SIPS HFF-1 cell model pre-incubated with compound for 12 hrs followed by H2O2 stimulation for 60 mins by ELISA method; format: functional, cell-based; conditions: Homo sapiens, dose 5-25 µg/ml, time 13.0 hrs
# Mus musculus [39] = assay: In vivo anti-skin aging activity against UV-induced SIPS Kunming mouse model assessed as upregulation of skin elasticity at 100 ug/ml administered topically and measured for 10 weeks in presence of propylene glycol; format: functional, organism-based; conditions: dose 100.0 µg/ml, route top
# HFF-1 [40] = assay: Inhibition of H2O2-stimulated IL-6 production in SIPS HFF-1 cell model pre-incubated with compound for 12 hrs followed by H2O2 stimulation for 60 mins by ELISA method; format: functional, cell-based; conditions: Homo sapiens, dose 5-25 µg/ml, time 13.0 hrs
# HFF-1 [41] = assay: Upregulation of COL-1 expression in UV-A-induced SIPS HFF-1 cell model pretreated with compound for 24 hrs followed by 10.8 J/cm^2 UV-A irradiation by Western blot analysis; format: functional, cell-based; conditions: Homo sapiens, dose 5-25 µg/ml
smiles,measurement,setting,value
CC(C)[C@H](N)C(=O)N[C@H](C(=O)N[C@@H](CS)C(=O)N1CCC[C@H]1C(=O)N[C@@H](CCCCN)C(=O)O)C(C)C (H-VVCPK-OH),Activity,HEK293,Active
same,Activity,[1],Active
same,Activity,[2],Active
CC(C)[C@H](N)C(=O)N[C@H](C(=O)N[C@@H](CCCCN)C(=O)N[C@@H](CS)C(=O)N1CCC[C@H]1C(=O)N[C@@H](CCCCN)C(=O)O)C(C)C (H-VVKCPK-OH),Activity,HEK293,Active
same,Activity,Mus musculus [3],Active
same,Activity,[1],Active
same,Activity,[4],85.4%
CC(C)[C@H](N)C(=O)N[C@H](C(=O)N1CCC[C@H]1C(=O)N1CCC[C@H]1C(=O)N[C@@H](CS)C(=O)N[C@@H](CCCCN)C(=O)O)C(C)C (H-VVPPCK-OH),Activity,[1],Active
same,Activity,HFF-1 [5],2.84%
CC(C)[C@H](N)C(=O)N[C@H](C(=O)N1CCC[C@H]1C(=O)N[C@H](C(=O)N[C@H](C(=O)N[C@H](C(=O)N[C@@H](CS)C(=O)N1CCC[C@H]1C(=O)N[C@@H](CCCCN)C(=O)O)C(C)C)C(C)C)[C@@H](C)O)C(C)C (H-VVPTVVCPK-OH),Activity,HEK293,Active
same,Activity,Mus musculus [3],Active
same,Activity,[6],Active
same,Activity,HFF-1 [7],Active
same,Activity,Erythrocyte,Non-Toxic
same,inhibition,HFF-1 [8],Dose-Dependent Effect
same,Activity,HFF-1 [9],Active
same,Activity,[10],21.4%
same,Activity,HFF-1 [11],Dose-Dependent Effect
same,Activity,HFF-1 [12],Active
same,Activity,Mus musculus [13],Active
same,Activity,[1],Active
same,Stability,[14],Stable
same,Activity,[15],23.14%
same,Activity,[16],26.03%
same,Activity,[17],5.9%
same,Activity,HFF-1 [18],Active
same,Activity,Mus musculus [19],Active
same,inhibition,HFF-1 [20],Dose-Dependent Effect
same,Activity,HFF-1 [21],Active
same,Activity,Mus musculus [22],Active
same,Activity,HFF-1 [23],Active
same,Activity,[24],Active
same,inhibition,[25],Active
same,Activity,[26],Active
same,Activity,Mus musculus [27],Active
same,inhibition,HFF-1 [28],Active
same,inhibition,HFF-1 [29],Active
same,Activity,HFF-1 [5],5.14%
same,Activity,[30],3.01%
same,Activity,[31],Active
same,Activity,HFF-1 [32],Active
same,Activity,HFF-1 [33],Active
same,Activity,[34],1.27%
same,Activity,HFF-1 [35],Active
same,Activity,HFF-1 [36],Active
same,Activity,Mus musculus [37],Active
same,inhibition,HFF-1 [38],Dose-Dependent Effect
same,Activity,Mus musculus [39],Active
same,inhibition,HFF-1 [40],Dose-Dependent Effect
same,Activity,HFF-1 [41],Dose-Dependent Effect
